Experiments:
C57BL/6 mice [1] = test: LPS-induced mild endotoxemia mouse model, serum cytokines by ELISA; format: in vivo; conditions: treatment i.p. 1 hour prior, Dex […], TSH 2.0 mg/kg, Thyroxine 0.05 mg/kg; for TNFα (1 hr) +/− S.E.: serum 1 hour after 25 ug LPS i.p., PBS group 6990.8; for IL-6 (4 hr) +/− S.E.: serum 4 hours after 25 ug LPS i.p., PBS group 45.6
Procedure: The LPS-induced mild endotoxemia model is an in vivo model designed to mimic acute endotoxemia/sepsis by challenging mice with a low, non-lethal dose of bacterial endotoxin (lipopolysaccharide, LPS). Serum is collected at various timepoints (1-72 hours) after intraperitoneal LPS injection and analyzed for altered expression of a wide variety of pro- and anti-inflammatory cytokines and acute phase proteins that mediate the inflammatory response. The model provides a means to assess the potential anti-inflammatory effects of therapeutic candidates during a robust inflammatory response.
In this model, an initial experiment is run to determine the production of proinflammatory cytokines in response to an injection of LPS. For example, six-month old Balb/c (Charles River Laboratories, Wilmington, Mass.) female mice are injected with 25 μg LPS (Sigma) in sterile PBS intraperitoneally (i.p.). Serum samples are collected at 0, 1, 4, 8, 16, 24, 48 and 72 hours later, and are assayed for serum levels of inflammatory mediators, such as IL-1β, IL-6, TNFα, and IL-10. Commercially available ELISA kits (Biosource International, Camarillo, Calif.) can be used to deterime the serum levels. In this assay TNFα levels and IL-1β levels can be measured at 1 hour post-LPS injection, and IL-6, IL-10 and IL-10 can be measured at 4 hours post injection. From these inflammatory mediators, one or more is chosen as a representative biological marker(s) for the LPS model of mild endotoxemia.
Next, C57BL/6 mice (Charles River Laboratories; 5 mice/group) are treated i.p. with PBS, or the test compound in PBS 1 hour prior to LPS challenge. The mice are then challenged with 25 ug of LPS i.p. and are bled at 1 hour and 4 hours after LPS injection. The level of the representative biological marker(s) is analyzed by ELISA.
Thyroxine (0.05 mg/kg) and Dexamethasone (0.015 mg/kg) were run as negative and positive controls, respectively. […] This model can be optimized for dosage and choice of biological markers.

C57BL/6 mice [2] = test: Delayed Type Hypersensitivity (DTH), OVA ear challenge; format: in vivo; conditions: Expt 3 (n = 7), adrenalectomized (ADX) mice; treatment i.p. at challenge (d 7); Dex […], TSH 2.0 mg/kg
thymus = conditions: mouse, in vivo

Row | SMILES | TNFα (1 hr) +/− S.E. (C57BL/6 mice [1]) [pg/mL] | IL-6 (4 hr) +/− S.E. (C57BL/6 mice [1]) [ng/mL] | CHANGE IN EAR THICKNESS, LEFT EAR (PBS) (C57BL/6 mice [2]) | CHANGE IN EAR THICKNESS, RIGHT EAR (OVA) (C57BL/6 mice [2]) | thymic atrophy (in words) (thymus)
1 | N[C@@H](Cc1cc(I)c(Oc2cc(I)c(O)c(I)c2)c(I)c1)C(=O)O [Thyroxine] | 4289.5 ± 642.3 | 37.1 ± 0.9 | – | – | –
2 | C[C@@H]1C[C@H]2[C@@H]3CCC4=CC(=O)C=C[C@]4(C)[C@@]3(F)[C@@H](O)C[C@]2(C)[C@@]1(O)C(=O)CO [Dex, Dexamethasone] | 3798.4 ± 415.7 | 35.2 ± 2.8 | 0.07 +/− 0.61 ×10^−3 inch | 3.71 +/− 0.64 ×10^−3 inch | obvious thymic atrophy

Reference: patent US20070010446A1, “METHODS FOR TREATING INFLAMMATION USING THYROID STIMULATING HORMONE” (ZymoGenetics, Inc., priority 2003, published 2007)
